Experimental data as given in PubChem BioAssay AID1845213 (Molecular Pharmacology Branch, DTP, NCI, 2023).
Calls of active or inactive are those of the source. How the source made its calls: active means viability on the fitted dose curve at most 10% of control; inactive means the rest.

Test system: NCI-H841 complex tumor spheroid viability
Test: Anticancer human tumor NCI-H841 cell line growth inhibition;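 on IC50: spheroids exposed to compounds for 7 days before readout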;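 on viability, T/C: spheroids exposed to compounds for 7 days before readout; 100% = DMSO vehicle control wells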
Settings: for IC50: curve of first compound; for viability, T/C: stronger effect = lower value
Method in brief: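 Single agents and combinations were tested on spheroids built from tumor cells plus HUVEC and hMSC, at half-log dilutions starting at or near clinical Cmax, else 10 microM; final DMSO 0.25% (v/v).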

[1] = second compound 1 µM, first compound 0.0316 µM
[2] = second compound 1 µM, first compound 0.1 µM
[3] = second compound 1 µM, first compound 0.316 µM
[4] = second compound 1 µM, first compound 1 µM
[5] = second compound 1 µM, first compound 3.16 µM
[6] = second compound 1 µM, first compound 10 µM
[7] = second compound 3.16 µM, first compound 0.0316 µM
[8] = second compound 3.16 µM, first compound 0.1 µM
[9] = second compound 3.16 µM, first compound 0.316 µM
[10] = second compound 3.16 µM, first compound 1 µM
[11] = second compound 3.16 µM, first compound 3.16 µM
[12] = second compound 3.16 µM, first compound 10 µM
[13] = second compound 10 µM, first compound 0.0316 µM
[14] = second compound 10 µM, first compound 0.1 µM
[15] = second compound 10 µM, first compound 0.316 µM
[16] = second compound 10 µM, first compound 1 µM
[17] = second compound 10 µM, first compound 3.16 µM
[18] = second compound 10 µM, first compound 10 µM
[19] = second compound 31.6 µM, first compound 0.0316 µM
[20] = second compound 31.6 µM, first compound 0.1 µM
[21] = second compound 31.6 µM, first compound 0.316 µM
[22] = second compound 31.6 µM, first compound 1 µM
[23] = second compound 31.6 µM, first compound 3.16 µM
[24] = second compound 31.6 µM, first compound 10 µM
[25] = second compound 100 µM, first compound 0.0316 µM
[26] = second compound 100 µM, first compound 0.1 µM
[27] = second compound 100 µM, first compound 0.316 µM
[28] = second compound 100 µM, first compound 1 µM
[29] = second compound 100 µM, first compound 3.16 µM
[30] = second compound 100 µM, first compound 10 µM

`COc1cc(C)[nH]c(=O)c1CN1CCc2c(Cl)cc(C(OC)C3COC3)c(Cl)c2C1=O` (stereo not given) + Cn1nnc2c(C(N)=O)ncn2c1=O showed an IC50 (second compound 1 µM) of 398 nM, an IC50 (second compound 3.16 µM) of 547 nM and an IC50 (second compound 10 µM) of 367 nM. It also gave an IC50 (second compound 31.6 µM) of 428 nM, an IC50 (second compound 100 µM) of 394 nM and a viability, T/C [1] of 79.7%. It also gave a viability, T/C [2] of 67.1%, a viability, T/C [3] of 48.4% and a viability, T/C [4] of 45.4%. It also gave a viability, T/C [5] of 33.9%, a viability, T/C [6] of 31.3% and a viability, T/C [7] of 85%. It also gave a viability, T/C [8] of 63.5%, a viability, T/C [9] of 54.5% and a viability, T/C [10] of 47.8%. For the same molecule, the viability, T/C [11] was 38.5%, the viability, T/C [12] was 32.8% and the viability, T/C [13] was 86%. It also gave a viability, T/C [14] of 67%, a viability, T/C [15] of 50.6% and a viability, T/C [16] of 41.1%. For the same molecule, the viability, T/C [17] was 35.9%, the viability, T/C [18] was 30.9% and the viability, T/C [19] was 83.9%. The viability, T/C [20] was 70.3%, the viability, T/C [21] was 49.8% and the viability, T/C [22] was 41.8%. The viability, T/C [23] was 36.9%, the viability, T/C [24] was 27% and the viability, T/C [25] was 87.3%. The viability, T/C [26] was 77.6%, the viability, T/C [27] was 51.2% and the viability, T/C [28] was 39.9%. It also gave a viability, T/C [29] of 36.5% and a viability, T/C [30] of 30.8%.

For `Cc1cc(C)c(CNC(=O)c2cc(-c3ccc(CN4CCOCC4)cc3)cc3c2cnn3C2CCCC2)c(=O)[nH]1` + Cn1nnc2c(C(N)=O)ncn2c1=O, the IC50 (second compound 1 µM) was 7500 nM, the IC50 (second compound 3.16 µM) was over 10000 nM and the IC50 (second compound 10 µM) was over 10000 nM. It also gave an IC50 (second compound 31.6 µM) of 9720 nM, an IC50 (second compound 100 µM) of 7700 nM and a viability, T/C [1] of 101%. The viability, T/C [2] was 102%, the viability, T/C [3] was 97.2% and the viability, T/C [4] was 94.6%. It also gave a viability, T/C [5] of 78.9%, a viability, T/C [6] of 40.1% and a viability, T/C [7] of 101%. For the same molecule, the viability, T/C [8] was 105%, the viability, T/C [9] was 102% and the viability, T/C [10] was 97.4%. It also gave a viability, T/C [11] of 85.2%, a viability, T/C [12] of 56.3% and a viability, T/C [13] of 103%. The viability, T/C [14] was 108%, the viability, T/C [15] was 105% and the viability, T/C [16] was 94.9%. For the same molecule, the viability, T/C [17] was 87.2%, the viability, T/C [18] was 52.5% and the outcome [19] was “inactive”. It also gave a viability, T/C [20] of 101%, a viability, T/C [21] of 97.6% and a viability, T/C [22] of 103%. It also gave a viability, T/C [23] of 83%, a viability, T/C [24] of 49.2% and a viability, T/C [25] of 98.3%. The viability, T/C [26] was 99.2%, the viability, T/C [27] was 95.8% and the viability, T/C [28] was 97.6%. For the same molecule, the viability, T/C [29] was 77.6% and the viability, T/C [30] was 41.7%.

`Cc1sc2c(c1C)C(c1ccc(Cl)cc1)=NC(CC(=O)Nc1ccc(O)cc1)c1nnc(C)n1-2` (stereo not given) + Cn1nnc2c(C(N)=O)ncn2c1=O was tested, and the IC50 (second compound 1 µM) was 375 nM, the IC50 (second compound 3.16 µM) was 409 nM and the IC50 (second compound 10 µM) was 384 nM. It also gave an IC50 (second compound 31.6 µM) of 361 nM, an IC50 (second compound 100 µM) of 267 nM and a viability, T/C (second compound 1 µM, first compound 0.00949 µM) of 98.5%. For the same molecule, the viability, T/C (second compound 1 µM, first compound 0.03 µM) was 101%, the viability, T/C (second compound 1 µM, first compound 0.0949 µM) was 74.8% and the viability, T/C (second compound 1 µM, first compound 0.3 µM) was 59.8%. It also gave a viability, T/C (second compound 1 µM, first compound 0.949 µM) of 24.3%, a viability, T/C (second compound 1 µM, first compound 3 µM) of 6.54% and a viability, T/C (second compound 3.16 µM, first compound 0.00949 µM) of 105%. The viability, T/C (second compound 3.16 µM, first compound 0.03 µM) was 98%, the viability, T/C (second compound 3.16 µM, first compound 0.0949 µM) was 88.9% and the viability, T/C (second compound 3.16 µM, first compound 0.3 µM) was 59.1%. It also gave a viability, T/C (second compound 3.16 µM, first compound 0.949 µM) of 24.7%, a viability, T/C (second compound 3.16 µM, first compound 3 µM) of 5.5% and a viability, T/C (second compound 10 µM, first compound 0.00949 µM) of 102%. The outcome (second compound 10 µM, first compound 0.03 µM) was “inactive”, the viability, T/C (second compound 10 µM, first compound 0.0949 µM) was 87.8% and the viability, T/C (second compound 10 µM, first compound 0.3 µM) was 61.5%. For the same molecule, the viability, T/C (second compound 10 µM, first compound 0.949 µM) was 14.4%, the viability, T/C (second compound 10 µM, first compound 3 µM) was 4.47% and the viability, T/C (second compound 31.6 µM, first compound 0.00949 µM) was 102%. The viability, T/C (second compound 31.6 µM, first compound 0.03 µM) was 98.2%, the outcome (second compound 31.6 µM, first compound 0.0949 µM) was “inactive” and the viability, T/C (second compound 31.6 µM, first compound 0.3 µM) was 57.3%. The viability, T/C (second compound 31.6 µM, first compound 0.949 µM) was 12.6%, the viability, T/C (second compound 31.6 µM, first compound 3 µM) was 2.27% and the viability, T/C (second compound 100 µM, first compound 0.00949 µM) was 101%. For the same molecule, the viability, T/C (second compound 100 µM, first compound 0.03 µM) was 99.8%, the viability, T/C (second compound 100 µM, first compound 0.0949 µM) was 82.6% and the viability, T/C (second compound 100 µM, first compound 0.3 µM) was 49%. It also gave a viability, T/C (second compound 100 µM, first compound 0.949 µM) of 5.34% and a viability, T/C (second compound 100 µM, first compound 3 µM) of 1.69%.

`[2H]c1nc(C)nc([2H])c1-c1cc(NC[C@@H](C)c2cccc3c(C(=O)NC)ccnc23)ncn1` + Cn1nnc2c(C(N)=O)ncn2c1=O gave an IC50 (second compound 1 µM) of over 10000 nM, an IC50 (second compound 3.16 µM) of over 10000 nM and an IC50 (second compound 10 µM) of over 10000 nM. It also gave an IC50 (second compound 31.6 µM) of over 10000 nM, an IC50 (second compound 100 µM) of over 10000 nM and a viability, T/C [1] of 98%. The viability, T/C [2] was 97.6%, the viability, T/C [3] was 94.8% and the viability, T/C [4] was 95%. For the same molecule, the viability, T/C [5] was 93.2%, the viability, T/C [6] was 91.4% and the viability, T/C [7] was 98.8%. The viability, T/C [8] was 99.8%, the viability, T/C [9] was 101% and the viability, T/C [10] was 101%. For the same molecule, the viability, T/C [11] was 95%, the viability, T/C [12] was 99.3% and the viability, T/C [13] was 99.6%. It also gave a viability, T/C [14] of 99.8%, a viability, T/C [15] of 97.7% and a viability, T/C [16] of 101%. The viability, T/C [17] was 98.9%, the viability, T/C [18] was 96.5% and the viability, T/C [19] was 97%. For the same molecule, the viability, T/C [20] was 97.7%, the viability, T/C [21] was 100% and the viability, T/C [22] was 98%. For the same molecule, the viability, T/C [23] was 97.4%, the outcome [24] was “inactive” and the viability, T/C [25] was 93.4%. The viability, T/C [26] was 95.7%, the viability, T/C [27] was 92.5% and the viability, T/C [28] was 95.9%. It also gave a viability, T/C [29] of 95.8% and a viability, T/C [30] of 91.2%.
